{
  "source": "patent US20250230193A1",
  "about": "“CYCLIC COMPOUND HAVING SELECTIVE KRAS INHIBITORY EFFECT ON HRAS AND NRAS” (CHUGAI SEIYAKU KABUSHIKI KAISHA, priority 2022, published 2025)",
  "key": {"[1]": {"biological_target": "GDP-bound NRAS wild-type protein (Homo sapiens, UniProt P01111)", "sequence (P01111 whole entry)": "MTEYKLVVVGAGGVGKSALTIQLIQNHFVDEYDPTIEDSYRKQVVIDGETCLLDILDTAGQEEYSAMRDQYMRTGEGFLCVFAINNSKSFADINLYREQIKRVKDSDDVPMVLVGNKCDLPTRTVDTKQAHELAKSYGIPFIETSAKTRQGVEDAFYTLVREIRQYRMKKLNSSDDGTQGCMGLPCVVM", "experiment": "Binding to NRAS by surface plasmon resonance (SPR), Single Cycle Kinetics", "conditions": "SPR; for NRAS/KRAS (ratio of KD value with respect to NRAS to KD value with respect to KRAS): GDP-bound NRAS wild-type vs GDP-bound KRAS wild-type"}, "[2]": {"biological_target": "GDP-bound HRAS wild-type protein (Homo sapiens, UniProt P01112)", "sequence (P01112 whole entry)": "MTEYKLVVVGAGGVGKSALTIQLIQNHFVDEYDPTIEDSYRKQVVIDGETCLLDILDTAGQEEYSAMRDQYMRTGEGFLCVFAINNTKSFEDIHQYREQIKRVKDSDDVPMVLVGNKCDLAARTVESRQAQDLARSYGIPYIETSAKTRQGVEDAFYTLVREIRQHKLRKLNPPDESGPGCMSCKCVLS", "experiment": "Binding to HRAS by surface plasmon resonance (SPR), Single Cycle Kinetics", "conditions": "SPR; for HRAS/KRAS (ratio of KD value with respect to HRAS to KD value with respect to KRAS): GDP-bound HRAS wild-type vs GDP-bound KRAS wild-type"}},
  "note": "Where a SMILES comes first, the peptide text is derived from it. Bridges are numbered along the chain shown (N, C = ends). [ ]: non-standard residue; d: D form. The star is where a group is joined. hPhe(3-Cl-4-CF3) = N[C@@H](CCc1ccc(C(F)(F)F)c(Cl)c1)C(=O)O; NPrPhe(4-CF3) = CCCN[C@@H](Cc1ccc(C(F)(F)F)cc1)C(=O)O; NMeGly(cPent) = CN[C@H](C(=O)O)C1CCCC1; NMeD = CN[C@@H](CC(=O)O)C(=O)O; NMeL = CN[C@@H](CC(C)C)C(=O)O; Oxazolidin(3-yl) = C1CN(*)CO1; Morpholide = C1CN(*)CCO1; Ac5c = NC1(C(=O)O)CCCC1; Sar = CNCC(=O)O",
  "data": [
    {"smiles": "CCO[C@@H]1C[C@H]2C(=O)NC3(CC(C)(C)C3)C(=O)N(C)[C@@H](C3CCCC3)C(=O)N(C)[C@H](C(=O)N(C)CC)CC(=O)N(C)[C@@H](COC)C(=O)N[C@@H]([C@@H](C)CC)C(=O)N(C)CC(=O)N(C)[C@H]3C/C=C\\CCN(C3=O)[C@@H](Cc3ccc(C)cc3)C(=O)N(C)CC(=O)N[C@@H](CCc3ccc(C(F)(F)F)c(Cl)c3)C(=O)N2C1", "note": "[PP2507]", "values": [
      {"measurement": "NRAS/KRAS (ratio of KD value with respect to NRAS to KD value with respect to KRAS)", "setting": "[1]", "value": "AA (a compound having 20 or more is denoted as AA)"},
      {"measurement": "HRAS/KRAS (ratio of KD value with respect to HRAS to KD value with respect to KRAS)", "setting": "[2]", "value": "A (a compound having 10 or more and less than 20 is denoted as A)"}
    ]},
    {"smiles": "CCO[C@@H]1C[C@H]2C(=O)NC3(CC(C)(C)C3)C(=O)N(C)[C@@H](C(CC)CC)C(=O)N(C)[C@H](C(=O)N3CCCC3)CC(=O)N(C)[C@@H](COC)C(=O)N[C@@H]([C@@H](C)CC)C(=O)N(C)CC(=O)N(C)[C@H]3C/C=C\\CCN(C3=O)[C@@H](Cc3ccc(C)cc3)C(=O)N(C)CC(=O)N[C@@H](CCc3ccc(C(F)(F)F)c(Cl)c3)C(=O)N2C1", "note": "[PP2144]", "values": [
      {"measurement": "NRAS/KRAS (ratio of KD value with respect to NRAS to KD value with respect to KRAS)", "setting": "[1]", "value": "AA (a compound having 20 or more is denoted as AA)"},
      {"measurement": "HRAS/KRAS (ratio of KD value with respect to HRAS to KD value with respect to KRAS)", "setting": "[2]", "value": "A (a compound having 10 or more and less than 20 is denoted as A)"}
    ]},
    {"smiles": "CCCN1C(=O)CN(C)C(=O)CN(C)C(=O)[C@H]([C@@H](C)CC)NC(=O)[C@H](CC(C)C)N(C)C(=O)C[C@@H](C(=O)N2CCOCC2)NC(=O)[C@H](C2CCCC2)N(C)C(=O)C2(CCCC2)NC(=O)[C@@H]2CCCN2C(=O)[C@H](CCc2ccc(C(F)(F)F)c(Cl)c2)NC(=O)CN(C)C(=O)[C@@H]1Cc1ccc(C(F)(F)F)cc1", "note": "[PP0146] ([NMeL]I[Sar][Sar][NPrPhe(4-CF3)][Sar][hPhe(3-Cl-4-CF3)]P[Ac5c][NMeGly(cPent)]D-Morpholide; lactam N-11)", "values": [
      {"measurement": "NRAS/KRAS (ratio of KD for GDP-bound NRAS wild-type to KD for KRAS)", "setting": "[1]; KD ratio NRAS/KRAS", "value": "B (a compound having 3 or more and less than 10 is denoted as B)"},
      {"measurement": "HRAS/KRAS (ratio of KD for GDP-bound HRAS wild-type to KD for KRAS)", "setting": "[2]; KD ratio HRAS/KRAS", "value": "B (a compound having 3 or more and less than 10 is denoted as B)"}
    ]},
    {"smiles": "CCC[C@H]1C(=O)N[C@@H]([C@@H](C)CC)C(=O)N(C)CC(=O)N(C)[C@H]2C/C=C\\CCN(C2=O)[C@@H](Cc2ccc(C)cc2)C(=O)N(C)CC(=O)N[C@@H](CCc2ccc(C(F)(F)F)c(OC)c2)C(=O)N2C[C@H](OCC)C[C@H]2C(=O)NC2(CC(C)(C)C2)C(=O)N(C)[C@@H]([C@@H](C)CC)C(=O)N(C)[C@H](C(=O)N(C)C)CC(=O)N1C", "note": "[PP3006]", "values": [
      {"measurement": "NRAS/KRAS (ratio of KD value with respect to GDP-bound NRAS wild-type protein to KD value with respect to KRAS)", "setting": "[1]; KD ratio NRAS/KRAS, GDP-bound wild-type proteins", "value": "A (a compound having 10 or more and less than 20 is denoted as A)"},
      {"measurement": "HRAS/KRAS (ratio of KD value with respect to GDP-bound HRAS wild-type protein to KD value with respect to KRAS)", "setting": "[2]; KD ratio HRAS/KRAS, GDP-bound wild-type proteins", "value": "A (a compound having 10 or more and less than 20 is denoted as A)"}
    ]},
    {"smiles": "CCOC[C@H]1C(=O)N[C@@H]([C@@H](C)CC)C(=O)N(C)CC(=O)N(C)[C@H]2C/C=C\\CCN(C2=O)[C@@H](Cc2ccc(C(F)(F)F)cc2)C(=O)N(C)CC(=O)N[C@@H](CCc2ccc(C(F)(F)F)c(OC)c2)C(=O)N2C[C@@H](C)C[C@H]2C(=O)N(C)C2(CCC2)C(=O)N(C)[C@@H](C2CCCC2)C(=O)N(C)[C@H](C(=O)N(C)C)CC(=O)N1C", "note": "[PP2359]", "values": [
      {"measurement": "NRAS/KRAS (ratio of KD value with respect to NRAS to KD value with respect to KRAS)", "setting": "[1]", "value": "A (a compound having 10 or more and less than 20 is denoted as A)"},
      {"measurement": "HRAS/KRAS (ratio of KD value with respect to HRAS to KD value with respect to KRAS)", "setting": "[2]", "value": "B (a compound having 3 or more and less than 10 is denoted as B)"}
    ]},
    {"smiles": "CCCN1C(=O)CN(C)C(=O)CN(C)C(=O)[C@H]([C@@H](C)CC)NC(=O)[C@H](CC(C)C)N(C)C(=O)C[C@@H](C(=O)N2CCOC2)N(C)C(=O)[C@H](C2CCCC2)N(C)C(=O)C2(CCCC2)NC(=O)[C@@H]2CCCN2C(=O)[C@H](CCc2ccc(C(F)(F)F)c(Cl)c2)NC(=O)CN(C)C(=O)[C@@H]1Cc1ccc(C(F)(F)F)cc1", "note": "[PP0174] ([NMeL]I[Sar][Sar][NPrPhe(4-CF3)][Sar][hPhe(3-Cl-4-CF3)]P[Ac5c][NMeGly(cPent)][NMeD]-{Oxazolidin(3-yl)}; lactam N-11)", "values": [
      {"measurement": "NRAS/KRAS (ratio of KD for GDP-bound NRAS wild-type to KD for KRAS)", "setting": "[1]; KD ratio NRAS/KRAS", "value": "B (a compound having 3 or more and less than 10 is denoted as B)"},
      {"measurement": "HRAS/KRAS (ratio of KD for GDP-bound HRAS wild-type to KD for KRAS)", "setting": "[2]; KD ratio HRAS/KRAS", "value": "B (a compound having 3 or more and less than 10 is denoted as B)"}
    ]},
    {"smiles": "CCO[C@@H]1C[C@H]2C(=O)NC3(CCC3)C(=O)N(C)[C@@H](C3CCCC3)C(=O)N(C)[C@H](C(=O)N3CCOCC3)CC(=O)N(C)[C@@H](CC(C)C)C(=O)N[C@@H]([C@@H](C)CC)C(=O)N(C)CC(=O)N(C)[C@H]3C/C=C\\CCN(C3=O)[C@@H](Cc3ccc(C(F)(F)F)cc3)C(=O)N(C)CC(=O)N[C@@H](CCc3ccc(C(F)(F)F)c(Cl)c3)C(=O)N2C1", "note": "[PP0825]", "values": [
      {"measurement": "NRAS/KRAS (ratio of KD value with respect to NRAS to KD value with respect to KRAS)", "setting": "[1]; KD ratio", "value": "A (a compound having 10 or more and less than 20 is denoted as A)"},
      {"measurement": "HRAS/KRAS (ratio of KD value with respect to HRAS to KD value with respect to KRAS)", "setting": "[2]; KD ratio", "value": "A (a compound having 10 or more and less than 20 is denoted as A)"}
    ]}
  ]
}
